In ChEMBL document CHEMBL1131796, “Design and synthesis of a novel synthetic NAPAP-penta-saccharide conjugate displaying a dual antithrombotic action” (Bioorg Med Chem Lett, 1999):

How the values were obtained:
Antithrombin-III [1] = molecular target: T1, Antithrombin-III (Homo sapiens, UniProt P01008); assay: (§1) Antithrombin III (ATIII)-mediated anti-Xa activity was determined
Prothrombin = Prothrombin (Homo sapiens, UniProt P00734); assay: In vitro anti-thrombin activity was determined
Antithrombin-III [2] = molecular target: T1, Antithrombin-III; assay: In vitro antithrombin III (ATIII)-mediated anti-Xa activity was determined
[3] = In vitro half life in rat; settings: in vivo
Antithrombin-III [4] = molecular target: T1, Antithrombin-III; assay: as §1; remark: listed apart in the source

T1 sequence (P01008 whole entry): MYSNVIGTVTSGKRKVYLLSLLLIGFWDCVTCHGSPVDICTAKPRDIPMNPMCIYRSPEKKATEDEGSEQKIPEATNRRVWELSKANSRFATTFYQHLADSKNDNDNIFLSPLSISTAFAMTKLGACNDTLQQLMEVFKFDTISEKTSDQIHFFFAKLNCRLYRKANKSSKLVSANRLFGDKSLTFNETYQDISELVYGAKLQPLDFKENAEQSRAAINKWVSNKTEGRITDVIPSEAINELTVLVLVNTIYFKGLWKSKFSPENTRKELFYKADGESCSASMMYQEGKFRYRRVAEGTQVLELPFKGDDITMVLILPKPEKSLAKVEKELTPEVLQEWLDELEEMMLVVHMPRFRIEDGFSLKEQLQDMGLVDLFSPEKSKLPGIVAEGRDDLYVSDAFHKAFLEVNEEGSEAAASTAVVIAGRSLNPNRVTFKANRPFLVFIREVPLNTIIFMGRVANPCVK

N=C(N)c1ccc(C[C@@H](NC(=O)CNS(=O)(=O)c2ccc3ccccc3c2)C(=O)N2CCCCC2)cc1
IC50 (Antithrombin-III [1]): 570 nM

CO[C@H]1O[C@H](COS(=O)(=O)O)[C@@H](O[C@@H]2O[C@@H](C(=O)O)[C@@H](O[C@H]3O[C@H](COS(=O)(=O)O)[C@@H](O[C@@H]4O[C@H](C(=O)O)[C@@H](O[C@H]5O[C@H](COS(=O)(=O)O)[C@@H](OCCOCCOCCOCCNC(=O)c6ccc(NC(=O)CSC[C@H](NS(=O)(=O)c7ccc8ccccc8c7)C(=O)NC(Cc7ccc(C(=N)N)cc7)C(=O)N7C=CCCC7)cc6)[C@H](OS(=O)(=O)O)[C@H]5OS(=O)(=O)O)[C@H](OC)[C@H]4OS(=O)(=O)O)[C@H](OS(=O)(=O)O)[C@H]3OS(=O)(=O)O)[C@H](OC)[C@H]2OS(=O)(=O)O)[C@H](OS(=O)(=O)O)[C@H]1OS(=O)(=O)O (stereo not given in full)
IC50 (Prothrombin): 350 nM | Activity (Antithrombin-III [2]): 885 U mg-1 | half-life [3]: 90 min

CO[C@@H]1OC(COS(=O)(=O)O)[C@H](O[C@@H]2OC(C(=O)O)[C@H](O[C@@H]3OC(COS(=O)(=O)O)[C@H](O[C@@H]4OC(C(=O)O)[C@H](O[C@@H]5OC(COS(=O)(=O)O)[C@@H](O)[C@@H](OS(=O)(=O)O)C5OS(=O)(=O)O)[C@@H](OC)C4OS(=O)(=O)O)[C@@H](OS(=O)(=O)O)C3OS(=O)(=O)O)[C@@H](OC)C2OS(=O)(=O)O)[C@@H](OS(=O)(=O)O)C1OS(=O)(=O)O (stereo not given in full)
Activity (Antithrombin-III [4]): 1160 U mg-1
